Measured values from ChEMBL document CHEMBL1201862, “PubChem BioAssay data set” (2004).
Active and inactive are the calls of the source.

Columns and labels:
[1] = NIH-3T3 fibroblast cytotoxicity, dose response, cytotoxicity control, cell-based, fluorescence, Alamar Blue, secondary assay (AID 2327); type: functional;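 also: NIH-3T3 mouse fibroblasts cultured with fluconazole at 8 µg/mL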
[2] = C. albicans growth with fluconazole, confirmation, fluorescence, retest (AID 2467); type: functional, cell-based
[3] = molecular target: T1, Serine/threonine-protein phosphatase (Candida dubliniensis (strain CD36 / CBS 7987 / NCPF 3949 / NRRLY-17841) (Yeast), UniProt B9W6M3); experiment: calcineurin pathway inhibitors in yeast reporter, dose response, S. cerevisiae, CDRE-lacZ, luminescence, secondary (AID 2388); type: functional, cell-based;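 also: yeast reporter cells carrying a calcineurin-responsive lacZ construct stimulated with calcium chloride; luminescent beta-galactosidase reporter signal in whole cells rather than isolated phosphatase activity; potency for inhibition where a drop in reporter signal means calcineurin blockade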
T1 sequence (B9W6M3 whole entry): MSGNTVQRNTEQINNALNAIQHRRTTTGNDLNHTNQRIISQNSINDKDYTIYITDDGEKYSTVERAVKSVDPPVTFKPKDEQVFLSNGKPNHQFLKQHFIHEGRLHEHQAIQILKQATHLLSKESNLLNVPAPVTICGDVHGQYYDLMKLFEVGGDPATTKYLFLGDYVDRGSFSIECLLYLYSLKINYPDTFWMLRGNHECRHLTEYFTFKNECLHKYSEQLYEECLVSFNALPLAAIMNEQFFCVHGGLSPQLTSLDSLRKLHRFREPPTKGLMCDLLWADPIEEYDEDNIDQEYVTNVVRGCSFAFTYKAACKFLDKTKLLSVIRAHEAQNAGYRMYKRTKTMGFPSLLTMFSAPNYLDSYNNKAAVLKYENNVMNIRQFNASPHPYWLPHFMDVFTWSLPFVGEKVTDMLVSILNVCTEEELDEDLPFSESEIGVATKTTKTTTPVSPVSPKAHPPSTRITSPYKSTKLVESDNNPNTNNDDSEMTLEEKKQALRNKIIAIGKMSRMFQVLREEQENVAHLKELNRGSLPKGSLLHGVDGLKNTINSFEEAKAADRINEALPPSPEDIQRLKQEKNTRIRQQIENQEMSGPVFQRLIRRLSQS

[4] = molecular target: ATP-dependent molecular chaperone HSP82 (Candida albicans (strain WO-1) (Yeast), UniProt C4YTQ8); experiment: loss of DOC-induced GRE-beta-galactosidase reporter signal, dose response, Hsp90 inhibitor project, S. cerevisiae, luminescence (AID 2400); type: functional, cell-based;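 also: beta-galactosidase luminescence from glucocorticoid response element reporter as proxy for Hsp90 function; inhibitor potency where signal loss means Hsp90 inhibition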
[5] = molecular target: T2, Polyadenylate-binding protein 1 (Homo sapiens, UniProt P11940); experiment: PABP1 MLLE–PAM2 interaction inhibitors, dose response, miRNA deadenylation inhibitor project, biochemical, fluorescence polarization, Cy5-PAM2 peptide, secondary (AID 602260); type: functional; details: read-out: IC50_Mean
[6] = molecular target: T2, Polyadenylate-binding protein 1; experiment: PABP1 MLLE–PAM2 binding inhibitor potency, dose response, biochemical, fluorescence polarization, FITC-PAM2 peptide (AID 602259); type: functional; details: read-out: IC50_Mean
Cytochrome P450 2C9 = Cytochrome P450 2C9 (Homo sapiens, UniProt P11712)
Cytochrome P450 3A4 = Cytochrome P450 3A4 (Homo sapiens, UniProt P08684);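 also: CYP3A4 tested as one member of a cytochrome P450 panel screen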
[7] = molecular target: Peroxisome proliferator-activated receptor gamma/Nuclear receptor coactivator 1 (Homo sapiens, UniProt P37231); experiment: (§1) TR-FRET dose response biochemical High Throughput Screening assay for agonists of the steroid receptor coactivator 1 (SRC-1) recruitment by the peroxisome proliferator-activated receptor gamma (PPAR gamma): non-selective agonists. [Related pubchem assays (depositor defined):AID1300, AID1808, AID504735, AID631]; type: protein assay
[8] = molecular target: Peroxisome proliferator-activated receptor gamma/Nuclear receptor coactivator 3 (Homo sapiens, UniProt P37231); experiment: as §1, with “3 (SRC-3)” for “1 (SRC-1)”, “assays: 1301 (Confirmation screen.), 1048 (Primary screen.)]” for “assays (depositor defined):AID1300, AID1808, AID504735, AID631]”; type: functional
[9] = molecular target: Peroxisome proliferator-activated receptor gamma/Nuclear receptor coactivator 2 (Homo sapiens, UniProt P37231); experiment: TR-FRET dose response biochemical High Throughput Screening assay for agonists of the steroid receptor coactivator 2 (SRC-2) recruitment by the peroxisome proliferator-activated receptor gamma (PPAR gamma): non-selective agonists. [Related pubchem assays: 1297, 1032 ]; type: functional
[10] = molecular target: T3, Short transient receptor potential channel 4 (Mus musculus, UniProt Q9QUQ5); experiment: mouse TRPC4 channel inhibitors, dose response, cell-based, HEK293 TRPC4/mu-opioid, Fluo-4 calcium (AID 434942); type: functional;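 also: potency of inhibitors blocking the TRPC4 calcium response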
T3 sequence (Q9QUQ5 whole entry): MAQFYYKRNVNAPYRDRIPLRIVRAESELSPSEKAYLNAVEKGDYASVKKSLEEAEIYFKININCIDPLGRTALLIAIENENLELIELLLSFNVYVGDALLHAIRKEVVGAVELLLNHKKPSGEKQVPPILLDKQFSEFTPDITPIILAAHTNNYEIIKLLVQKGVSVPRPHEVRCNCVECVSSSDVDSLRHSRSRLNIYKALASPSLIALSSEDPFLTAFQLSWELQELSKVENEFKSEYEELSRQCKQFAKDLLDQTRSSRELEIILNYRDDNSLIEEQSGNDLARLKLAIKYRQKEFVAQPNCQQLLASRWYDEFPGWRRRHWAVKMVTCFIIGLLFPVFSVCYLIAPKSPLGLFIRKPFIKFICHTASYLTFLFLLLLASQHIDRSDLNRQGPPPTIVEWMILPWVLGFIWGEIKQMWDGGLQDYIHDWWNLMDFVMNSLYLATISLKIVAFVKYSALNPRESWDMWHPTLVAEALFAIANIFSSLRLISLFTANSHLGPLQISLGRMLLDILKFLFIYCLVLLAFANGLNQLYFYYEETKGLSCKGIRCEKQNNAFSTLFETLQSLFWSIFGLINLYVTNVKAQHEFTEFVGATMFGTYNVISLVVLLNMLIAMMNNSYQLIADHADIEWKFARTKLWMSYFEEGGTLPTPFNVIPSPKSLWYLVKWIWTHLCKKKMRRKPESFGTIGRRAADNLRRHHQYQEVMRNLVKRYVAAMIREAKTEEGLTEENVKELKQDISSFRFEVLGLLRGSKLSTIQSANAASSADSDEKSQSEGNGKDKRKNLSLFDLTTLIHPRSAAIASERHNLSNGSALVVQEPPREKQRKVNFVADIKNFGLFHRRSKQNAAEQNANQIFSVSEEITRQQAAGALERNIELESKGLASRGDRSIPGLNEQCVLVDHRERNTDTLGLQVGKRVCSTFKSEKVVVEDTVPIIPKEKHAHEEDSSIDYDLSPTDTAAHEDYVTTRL

[11] = molecular target: T4, Heat shock factor protein 1 (Mus musculus, UniProt P38532); experiment: inhibition of MG132-induced HSE-luciferase signal, confirmation, cell-based, NIH3T3, luminescence, dose retest (AID 2382); type: functional;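 also: NIH3T3 fibroblasts with HSF1-driven luciferase reporter stressed by proteasome inhibitor MG132; luminescence from HSF1-driven luciferase expression after 8 hours of MG132 stress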
T4 sequence (P38532 whole entry): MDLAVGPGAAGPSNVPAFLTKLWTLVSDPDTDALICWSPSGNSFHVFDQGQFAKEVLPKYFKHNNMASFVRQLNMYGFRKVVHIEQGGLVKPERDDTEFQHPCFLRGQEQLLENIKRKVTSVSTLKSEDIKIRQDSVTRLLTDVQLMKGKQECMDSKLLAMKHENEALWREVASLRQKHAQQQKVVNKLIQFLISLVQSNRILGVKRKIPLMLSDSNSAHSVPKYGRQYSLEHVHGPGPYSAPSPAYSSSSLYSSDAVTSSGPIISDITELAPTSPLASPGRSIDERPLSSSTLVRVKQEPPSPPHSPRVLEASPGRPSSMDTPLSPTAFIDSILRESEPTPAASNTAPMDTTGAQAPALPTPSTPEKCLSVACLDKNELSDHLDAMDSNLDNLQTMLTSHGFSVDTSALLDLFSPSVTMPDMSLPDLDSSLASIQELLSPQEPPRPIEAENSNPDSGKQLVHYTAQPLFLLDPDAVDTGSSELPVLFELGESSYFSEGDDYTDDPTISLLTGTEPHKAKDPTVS

Chain of ATP-dependent molecular chaperone HSP82 (C4YTQ8 whole entry): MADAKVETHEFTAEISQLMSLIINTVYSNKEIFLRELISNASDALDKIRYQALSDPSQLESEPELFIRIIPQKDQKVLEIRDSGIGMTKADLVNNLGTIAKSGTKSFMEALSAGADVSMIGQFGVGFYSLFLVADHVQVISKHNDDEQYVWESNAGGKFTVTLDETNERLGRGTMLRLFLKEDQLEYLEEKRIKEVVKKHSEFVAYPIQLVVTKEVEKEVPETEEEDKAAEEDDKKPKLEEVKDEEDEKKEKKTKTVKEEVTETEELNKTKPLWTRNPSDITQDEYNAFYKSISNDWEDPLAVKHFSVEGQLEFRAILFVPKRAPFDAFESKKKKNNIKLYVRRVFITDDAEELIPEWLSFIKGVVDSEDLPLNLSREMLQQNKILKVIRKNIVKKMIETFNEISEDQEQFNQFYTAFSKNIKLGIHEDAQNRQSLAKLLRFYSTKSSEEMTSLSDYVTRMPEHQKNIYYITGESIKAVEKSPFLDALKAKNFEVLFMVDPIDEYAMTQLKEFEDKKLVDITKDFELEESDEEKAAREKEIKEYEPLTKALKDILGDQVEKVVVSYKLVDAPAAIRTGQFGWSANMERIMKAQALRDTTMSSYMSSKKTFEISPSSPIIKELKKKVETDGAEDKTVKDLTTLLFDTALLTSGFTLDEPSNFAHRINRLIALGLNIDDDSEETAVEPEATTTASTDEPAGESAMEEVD
T2 sequence (P11940 whole entry): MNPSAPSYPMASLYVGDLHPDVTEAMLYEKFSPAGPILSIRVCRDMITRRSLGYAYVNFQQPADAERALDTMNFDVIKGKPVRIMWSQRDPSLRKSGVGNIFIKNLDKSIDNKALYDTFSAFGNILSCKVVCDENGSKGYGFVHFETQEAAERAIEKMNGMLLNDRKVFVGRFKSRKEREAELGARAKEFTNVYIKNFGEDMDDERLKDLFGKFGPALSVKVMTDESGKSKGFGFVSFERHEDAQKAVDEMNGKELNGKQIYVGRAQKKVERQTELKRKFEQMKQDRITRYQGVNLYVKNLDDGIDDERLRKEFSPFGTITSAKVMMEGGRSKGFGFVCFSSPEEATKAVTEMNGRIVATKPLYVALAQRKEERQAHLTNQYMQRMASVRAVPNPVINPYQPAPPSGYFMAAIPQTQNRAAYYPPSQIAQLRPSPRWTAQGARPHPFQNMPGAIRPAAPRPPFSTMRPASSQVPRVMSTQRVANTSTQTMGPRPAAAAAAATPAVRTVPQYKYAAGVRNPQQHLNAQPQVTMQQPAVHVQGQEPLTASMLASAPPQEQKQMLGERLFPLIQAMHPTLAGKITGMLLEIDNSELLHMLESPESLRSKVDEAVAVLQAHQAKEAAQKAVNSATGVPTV
Chain of Cytochrome P450 2C9 (P11712 whole entry): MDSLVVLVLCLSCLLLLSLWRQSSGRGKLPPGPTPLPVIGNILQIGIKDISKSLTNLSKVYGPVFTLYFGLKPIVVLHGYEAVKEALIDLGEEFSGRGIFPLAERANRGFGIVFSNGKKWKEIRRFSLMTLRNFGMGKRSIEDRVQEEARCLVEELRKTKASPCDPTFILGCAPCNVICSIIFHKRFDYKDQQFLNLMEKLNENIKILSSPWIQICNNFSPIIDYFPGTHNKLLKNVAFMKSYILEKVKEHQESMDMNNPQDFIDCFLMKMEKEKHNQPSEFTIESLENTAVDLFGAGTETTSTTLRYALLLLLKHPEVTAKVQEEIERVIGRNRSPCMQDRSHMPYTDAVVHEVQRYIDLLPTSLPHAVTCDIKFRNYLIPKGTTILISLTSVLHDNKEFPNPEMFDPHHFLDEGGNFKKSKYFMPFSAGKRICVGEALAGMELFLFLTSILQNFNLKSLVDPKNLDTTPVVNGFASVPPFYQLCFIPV
Chain of Cytochrome P450 3A4 (P08684 whole entry): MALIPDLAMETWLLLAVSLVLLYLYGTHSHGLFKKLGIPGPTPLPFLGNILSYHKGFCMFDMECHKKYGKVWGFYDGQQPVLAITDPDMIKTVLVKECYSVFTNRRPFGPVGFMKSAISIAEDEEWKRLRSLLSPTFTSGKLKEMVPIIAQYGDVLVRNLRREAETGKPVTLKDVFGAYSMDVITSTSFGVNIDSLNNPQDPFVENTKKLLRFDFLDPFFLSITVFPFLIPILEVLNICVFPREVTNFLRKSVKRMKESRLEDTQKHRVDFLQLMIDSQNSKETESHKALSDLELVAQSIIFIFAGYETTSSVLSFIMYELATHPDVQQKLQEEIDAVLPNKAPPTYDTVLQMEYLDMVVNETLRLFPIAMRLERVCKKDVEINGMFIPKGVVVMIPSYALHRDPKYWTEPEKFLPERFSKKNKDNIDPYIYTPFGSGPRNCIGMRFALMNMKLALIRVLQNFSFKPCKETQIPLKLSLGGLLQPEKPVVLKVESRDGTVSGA
Chain of Peroxisome proliferator-activated receptor gamma/Nuclear receptor coactivator 1 (P37231 whole entry): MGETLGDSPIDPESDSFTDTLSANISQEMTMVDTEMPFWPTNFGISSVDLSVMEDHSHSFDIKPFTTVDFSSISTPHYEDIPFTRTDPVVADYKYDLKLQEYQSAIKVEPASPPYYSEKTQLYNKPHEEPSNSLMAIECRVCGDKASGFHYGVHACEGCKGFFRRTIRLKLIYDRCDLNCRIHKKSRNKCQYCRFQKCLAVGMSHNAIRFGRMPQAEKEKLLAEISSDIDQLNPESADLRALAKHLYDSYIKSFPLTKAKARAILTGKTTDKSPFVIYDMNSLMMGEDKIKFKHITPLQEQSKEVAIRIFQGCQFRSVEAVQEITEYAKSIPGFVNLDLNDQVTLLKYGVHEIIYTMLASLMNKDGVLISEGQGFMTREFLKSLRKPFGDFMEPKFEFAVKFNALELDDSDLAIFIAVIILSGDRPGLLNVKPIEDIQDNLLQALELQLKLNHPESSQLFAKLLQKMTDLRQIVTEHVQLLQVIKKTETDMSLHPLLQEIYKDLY
Chain of Peroxisome proliferator-activated receptor gamma/Nuclear receptor coactivator 1 (Q15788 whole entry, further chain): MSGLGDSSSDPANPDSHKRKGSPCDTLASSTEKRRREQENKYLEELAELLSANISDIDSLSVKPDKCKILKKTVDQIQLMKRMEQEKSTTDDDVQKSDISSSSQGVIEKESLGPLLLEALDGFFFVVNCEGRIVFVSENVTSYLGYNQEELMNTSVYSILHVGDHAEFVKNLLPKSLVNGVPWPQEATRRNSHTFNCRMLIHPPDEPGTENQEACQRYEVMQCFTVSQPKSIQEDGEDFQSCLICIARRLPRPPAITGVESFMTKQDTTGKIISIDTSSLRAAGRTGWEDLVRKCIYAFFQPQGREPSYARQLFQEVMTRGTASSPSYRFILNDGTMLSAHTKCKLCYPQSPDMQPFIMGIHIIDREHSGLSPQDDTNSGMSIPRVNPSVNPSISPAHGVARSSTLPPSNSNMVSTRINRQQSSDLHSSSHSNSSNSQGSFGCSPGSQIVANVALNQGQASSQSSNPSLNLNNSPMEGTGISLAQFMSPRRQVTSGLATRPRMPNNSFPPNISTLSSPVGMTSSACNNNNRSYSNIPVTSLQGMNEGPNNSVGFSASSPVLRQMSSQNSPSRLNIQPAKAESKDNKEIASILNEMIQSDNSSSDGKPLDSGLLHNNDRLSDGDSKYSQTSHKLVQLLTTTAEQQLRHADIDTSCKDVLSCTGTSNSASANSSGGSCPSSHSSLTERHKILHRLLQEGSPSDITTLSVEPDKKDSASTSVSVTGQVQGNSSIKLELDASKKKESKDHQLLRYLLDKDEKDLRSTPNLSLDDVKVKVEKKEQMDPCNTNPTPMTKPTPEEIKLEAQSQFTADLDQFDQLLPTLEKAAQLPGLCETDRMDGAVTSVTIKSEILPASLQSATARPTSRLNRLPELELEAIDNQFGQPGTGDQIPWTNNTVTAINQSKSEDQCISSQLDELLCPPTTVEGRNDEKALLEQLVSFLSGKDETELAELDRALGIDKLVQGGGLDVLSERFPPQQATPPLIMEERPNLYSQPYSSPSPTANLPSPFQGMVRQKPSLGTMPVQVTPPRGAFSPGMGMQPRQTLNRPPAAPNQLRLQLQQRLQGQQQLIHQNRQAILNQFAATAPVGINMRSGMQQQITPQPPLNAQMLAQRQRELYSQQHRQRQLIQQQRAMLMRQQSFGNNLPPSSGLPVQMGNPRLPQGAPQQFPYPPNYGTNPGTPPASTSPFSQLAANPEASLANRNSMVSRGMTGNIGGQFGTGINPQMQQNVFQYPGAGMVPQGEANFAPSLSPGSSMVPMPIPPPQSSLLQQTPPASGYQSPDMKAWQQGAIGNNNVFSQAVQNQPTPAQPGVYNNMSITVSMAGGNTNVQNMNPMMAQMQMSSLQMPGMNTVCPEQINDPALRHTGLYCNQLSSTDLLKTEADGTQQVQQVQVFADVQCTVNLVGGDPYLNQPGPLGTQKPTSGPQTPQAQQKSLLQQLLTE

| EC50 [10] | SMILES | EC50 [1] | EC50 [2] | EC50 [3] | EC50 [4] | further results |
| --- | --- | --- | --- | --- | --- | --- |
|  | CCc1nnc(NC(=O)CSc2ncc(-c3ccccc3)n2C)s1 | > 150 µM (inactive) | 1.3 µM (active) | > 180 µM (inactive) | 23.1 µM (active) |  |
|  | Cc1ccc(C)c(NC(S)=NNC(=O)c2csc(C(C)C)c2)c1 | > 150 µM (inactive) | 0.907 µM (active) | > 180 µM (inactive) | > 160 µM (inactive) | IC50 [5]: > 66 µM (inactive); IC50 [6]: > 66 µM (inactive) |
|  | CN1CCN(c2ncc3nc(CCc4ccccc4)c(=O)n(C)c3n2)CC1 |  |  |  |  | AC50 (Cytochrome P450 2C9): 39.8 µM (inconclusive); AC50 (Cytochrome P450 3A4): inconclusive |
|  | O=C(Oc1ccccc1)Oc1ccc2c(c1)oc(=O)c1ccccc12 |  |  |  |  | EC50 [7]: > 79.4 µM (inactive); EC50 [8]: > 79.4 µM (not active); EC50 [9]: 64.1 µM (not active) |
| 3.76 µM (active) | Cc1n[nH]c(C)c1CCCCOc1ccccc1 |  |  |  |  |  |
| 1.88 µM (active) | Nc1c2c(nc3ccccc13)N(c1ccccc1)CC2 |  |  |  |  | EC50 [11]: > 195 µM (not active) |
| 7.5 µM (active) | Cn1c(NCc2ccccc2O)nc2ccccc21 |  |  |  |  |  |
|  | Cc1ccccc1/C=C1\SC(=S)N(/N=C/c2cc([N+](=O)[O-])ccc2O)C1=O | > 160 µM (inactive) | 2.01 µM (active) | > 180 µM (inactive) | 20.7 µM (active) |  |
